The text below walks through data of paper PMC6921279 (Frontiers in Endocrinology, 2019).

In experiment [1] the test system is CRF1R-mediated ERK1/2 phosphorylation. The experiment is described as follows: Modulation of CRF-stimulated ERK1/2 phosphorylation in COS-7 cells expressing HA-CRF1R. The experiment is classed as cell-based. As to conditions: 30 min pretreatment, 100 nM CRF, 5 min. Here is the method:
Plasmid pRK5 encoding the carboxyl terminus of βARK that contains its βγ-binding domain (ct-βARK) was kindly provided by Dr. W. Koch (Center for Translational Medicine, Temple University, Philadelphia, PA), which is a scavenger for G protein βγ subunits ([25]). […] Plasmid pUSEamp encoding dominant-negative Akt-K179M (dn-Akt) was from Upstate Biotechnology (Lake Placid, NY).
COS-7 cells (from the American Type Culture Collection) were cultured at 37°C in a humidified atmosphere of 95% air, 5% CO2, in DMEM supplemented with 10% FBS, 100 μg/ml streptomycin, and 100 units/ml penicillin (COS-7 growth medium). Transient transfections were performed using LipofectAMINE (Life Technologies: Gaithersburg, MD) as described previously ([27]). Cells were seeded at 8 × 10^5 cells/10-cm dish in COS-7 medium and cultured for 3 days before transfection. COS-7 cells were transfected in 5 ml/dish OptiMEM containing 10 μg/ml LipofectAMINE with empty vector, pcDNA3 encoding the HA-CRF1R or the HA-CRF1R-Δ386 mutant. […] After replacing the transfection medium with fresh growth medium, transfected COS-7 cells were cultured for 1 day. Subsequently, cells were re-seeded in 6-well plates and cultured for an additional day prior to the experiment.
(§1) The protocols for measuring total and phosphorylated ERK1/2, c-Src, PYK2, Akt, and EGFR have been previously published ([28], [29]). After cells were cultured to 60–70% confluence, they were serum-deprived for 24 h. On the day of the experiment, cells were treated with the indicated ligands and inhibitors. […] After treatment, cells were placed on ice, the media was aspirated, and the cells were washed twice with ice-cold PBS and lysed in 100 μl of Laemmli sample buffer 1X. The lysates were briefly sonicated, heated at 95°C for 5 min, and centrifuged for 5 min at 14,000 rpm. Resulting supernatants were loaded in separate lanes of a 10% SDS-PAGE gels and electrophoresed. Next, Western transfer on to PDVF membranes was completed. The Western blots were then probed with specific antibodies targeting phosphorylated and non-phosphorylated forms of ERK1/2, c-Src, PYK2, Akt, and EGFR for primary immunodetection. After blots were probed with horseradish peroxidase-conjugated secondary antibody, protein bands were visualized with enhanced chemiluminescence ECL reagent (Amersham Pharmacia Biotech, Piscataway, NJ or Pierce Biotechnology, Rockford, IL) and scanned using the GS-800 Calibrated Imaging Densitometer (Bio-Rad). The labeled bands were quantified using the Quantity One 4.6.3 software program (Bio-Rad).
Total cell lysates were separated by SDS-PAGE and analyzed by immunoblotting with anti-p-ERK1/2 Thr^202/Tyr^204, as described in Materials and Methods. ERK1/2 phosphorylation was quantitated by densitometry, and mean values were plotted from five independent experiments.
Total cell lysates were separated by SDS-PAGE and analyzed by immunoblotting with anti-p-ERK1/2 Thr^202/Tyr^204 (A–D) or anti-p-EGFR Tyr^1068 (E), as described in Materials and Methods. ERK1/2 and EGFR phosphorylation were quantitated by densitometry, and mean values were plotted from three to five independent experiments.
Total cell lysates were separated by SDS-PAGE and analyzed by immunoblotting with anti-p-ERK1/2 Thr^202/Tyr^204, as described in Materials and Methods. ERK1/2 phosphorylation was quantitated by densitometry, and mean values were plotted from three to five independent experiments.

Experiment [2] deals with CATH.a, rat fetal microglial, locus coeruleus, and transfected CHO cells. The note with it: H89; cited from earlier work. The text has this:
(§2) Defining the molecular mechanisms for ERK1/2 signaling by a GPCR has become a significant focus of signal transduction research due to the multifaceted pathways mediating signaling via the ERK1/2-MAP kinase cascade. A significant role of the ERK1/2-MAP kinase pathway has been recognized in the biological action of both CRF1R and CRF2R. ERK1/2 is widely distributed in the brain and is considered an essential regulator of the molecular processes involved in response to stress ([6], [64]). It is well-established that most GPCRs signal via ERK1/2-MAP kinase cascades through distinct Gi-, Gs-, and ...

In experiment [3] the test system is fetal hippocampal cells. The note with it: H89 pretreatment; cited from earlier work.
Source text: as §2

Experiment [4] has as its system CRF1R-expressing SK-N-MC neuroblastoma cells. The experiment is described as follows: ERK1/2 phosphorylation in CRF1R-expressing SK-N-MC neuroblastoma cells. Format: cell-based. As to conditions: 100 ng/ml FGF, 2 or 5 min. As for the experimental part: as §1, with “After blots were probed with horseradish peroxidase-conjugated secondary antibody, protein bands were visualized with enhanced chemiluminescence ECL reagent (Amersham Pharmacia Biotech, Piscataway, NJ or Pierce Biotechnology, Rockford, IL) and scanned using the GS-800 Calibrated Imaging Densitometer (Bio-Rad).” left out
Supplementary Figure S2. […] Total cell lysates were separated by SDS-PAGE and analyzed by immunoblotting with anti-p-ERK1/2 Thr202/Tyr204, as described in materials and methods. […]

The test system of experiment [5] is basal ERK1/2 or Akt phosphorylation. Briefly: Basal ERK1/2 and Akt phosphorylation in COS-7 cells expressing CRF1R. The experiment is classed as cell-based. As to conditions: 1 µM BIM, 30 min. As for the experimental part:
as §1, with “After blots were probed with horseradish peroxidase-conjugated secondary antibody, protein bands were visualized with enhanced chemiluminescence ECL reagent (Amersham Pharmacia Biotech, Piscataway, NJ or Pierce Biotechnology, Rockford, IL) and scanned using the GS-800 Calibrated Imaging Densitometer (Bio-Rad).” left out, “(Bio-Rad). […]” for “(Bio-Rad).”
Total cell lysates were separated by SDS-PAGE and analyzed by immunoblotting with anti-p-Akt Ser473 or anti-p-ERK1/2 Thr202/Tyr204, as described in materials and methods. […]

Experiment [6] relates to PMA-stimulated ERK1/2 phosphorylation. The experiment is described as follows: Modulation of PMA-stimulated ERK1/2 phosphorylation in COS-7 cells. Format: cell-based. As to conditions: BIM 1 μM, 30 min pretreatment; 100 nM PMA, 15 min. As for the experimental part: COS-7 cells (from the American Type Culture Collection) were cultured at 37°C in a humidified atmosphere of 95% air, 5% CO2, in DMEM supplemented with 10% FBS, 100 μg/ml streptomycin, and 100 units/ml penicillin (COS-7 growth medium). Transient transfections were performed using LipofectAMINE (Life Technologies: Gaithersburg, MD) as described previously ([27]). Cells were seeded at 8 × 10^5 cells/10-cm dish in COS-7 medium and cultured for 3 days before transfection. COS-7 cells were transfected in 5 ml/dish OptiMEM containing 10 μg/ml LipofectAMINE with empty vector, pcDNA3 encoding the HA-CRF1R or the HA-CRF1R-Δ386 mutant. […]
The protocols for measuring total and phosphorylated ERK1/2, c-Src, PYK2, Akt, and EGFR have been previously published ([28], [29]). […] The labeled bands were quantified using the Quantity One 4.6.3 software program (Bio-Rad).
Figure 2 CRF-induced ERK1/2 phosphorylation is dependent on Gi protein. […] Total cell lysates were separated by SDS-PAGE and analyzed by immunoblotting with anti-p-ERK1/2 Thr^202/Tyr^204, as described in Materials and Methods. ERK1/2 phosphorylation was quantitated by densitometry, and mean values were plotted from five independent experiments. […]
Total cell lysates were separated by SDS-PAGE and analyzed by immunoblotting with anti-p-ERK1/2 Thr202/Tyr204, as described in materials and methods. […]

For experiment [7], the system named is EGFR. The note with it: Ucn1, CRF1R-expressing HEK293; cited from earlier work.

Ends that are not written are not given here.

As for `O=S(=O)(NCCNC/C=C/c1ccc(Br)cc1)c1cccc2cnccc12` [H89], in experiment [1] (H89 500 nM), the “effect on CRF-stimulated ERK1/2 phosphorylation” value was “failed to inhibit CRF-stimulated ERK1/2 phosphorylation”. The “effect on CRF1R-mediated ERK signaling” value in experiment [2] is listed as “failed to inhibit CRF1R-mediated ERK signaling”. For the same molecule, the “effect on CRF1R-mediated ERK phosphorylation” value in experiment [3] is listed as “only produced a small reduction in CRF1R-mediated ERK phosphorylation”.
In the case of fibroblast growth factor, the ERK1/2 phosphorylation result in experiment [4] is reported as “induced strong ERK1/2 phosphorylation”.
As to `CN(C)CCCn1cc(C2=C(c3c[nH]c4ccccc34)C(=O)NC2=O)c2ccccc21` [BIM, bisindolylmaleimide I], the “effect on basal ERK1/2 activation” value in experiment [5] is “small increase in ERK1/2 activation”. For the same molecule, the “CRF-stimulated ERK1/2 activation, fold increase” value in experiment [1] (BIM 1 μM) was ~ 1.6 -fold increase over CRF stimulation. In addition, the “effect on PMA-induced ERK1/2 phosphorylation” value in experiment [6] was “inhibited ERK1/2 phosphorylation resulting from PMA-induced PKC activation”.
On to “Ucn1: urocortin 1 (DNPSLSIDLTFHLLRTLLELARTQSQRERAEQNRIIFDSV; ends and bridges not checked; UniProt P55089 83-122, looked up)”, for which the EGFR transactivation entry in experiment [7] is “stimulated EGFR transactivation”.
